# Measured values from patent publication US11957783B2, “Topical immunosensitizers to treat viral and fungal infections” (Squarex, LLC, priority 2018, dated 2024).
# Marks after values point to notes of the source that are not given here.
# System: peripheral blood mononuclear cells (PBMC)
# Test: Cytokine and immune-function gene expression of PBMC in vitro (qRT-PCR, 41 immune-related genes)
# Format: cell-based, human
# Description: After a screening visit at which blood was drawn to test for IgG antibody against HSV-1 and subjects were interviewed for inclusion/exclusion criteria, selected subjects returned for blood draws on day 1. After the blood draw on day 1, subjects in group A only were dosed with SADBE. A petrolatum donut was applied with a cotton swab to form about a 1 cm diameter donut on skin on the inner aspect of the upper arm. Then a separate cotton swab was dipped in a 2% SADBE solution (w/v) in DMSO, and the swab was then used to apply about 10-20 mg of solution over about a 1 cm diameter circle within the petrolatum donut. Immediately after application, the application site was covered with TEGADERM. Subjects were advised to remove the TEGADERM and rinse and wipe the spot three hours later. The group A subjects then returned for blood draws on days 15 and 57 and were queried about adverse events on those dates.
# PBMC were isolated using SepMate PBMC isolation tubes (Stem Cell Technologies, Vancouver, Canada) and Ficoll-Paque according to the manufacturer's instructions. PBMC were isolated and suspended in negative control medium at 2 million cells/ml. PBMC suspension (100 μL) was added to 100 μL of medium in quadruplicate in 96-well plates. The plates were prepared in advance and stored at −70° C. The wells were in five different conditions in quadruplicate with these final concentrations after addition of the 100 μL of PBMC suspension in negative control medium. • 1. Negative control in medium (RPMI with glutamine and pen/strep, supplemented with 10% human A/B serum). • 2. Medium plus 16 μg/ml protein from heat-inactivated HSV-1-infected Vero cell extracts. • 3. Medium plus heat-inactivated HSV-1 cell-free virus at a final 7.5 million pfu/ml. • 4. Medium plus Candida cell extract. (Greer item number M15A50, 20,000 pnu/ml allergenic extract mixed molds Candida albicans, was diluted 1/50 into medium). • 5. Positive control, medium plus 10 μg/ml concanavalin A.
# Two plates were created for each subject at each collection point. One plate was incubated for 2 days at 37° C. in a humidified 5% CO2 atmosphere and then RNA was isolated from the pooled contents of the 4 wells of a given condition for a specific patient, and the RNA was stored at −70° C. and subsequently used for quantitative real time PCR analysis of gene expression of 41 immune-related genes.
# As noted above, after 2 days of growth of the PBMC in a 37° C. humidified 5% CO2 incubator in a 96-well plate, four wells of a single condition (negative control, positive control, heat-inactivated HSV-1, HSV-1-infected cell extracts, or Candida extract) with cells from a single subject (200 μL in each well) were pooled, and the RNA was immediately isolated with Trizol reagent and chloroform by Qiagen RNeasy MiniElute clean up kit Qiagen cat #74204, according to manufacturer's instructions into a final volume of 13 μL, and then flash frozen on powdered dry ice, and stored at −70° C. in aliquots of 3 μL for RNA quantification and 10 μL for PCR analysis.
# RNA was preamplified with the Qiagen RT2 PreAMP cDNA synthesis kit (Ref. 330451) and custom RT2 PreAmp primer mix (Ref. 330141) starting with about 50 ng RNA according to the procedure of RT preamp cDNA synthesis handbook date March 2011, pages 17-20. The amplification reactions (final 120 μL) were frozen at −70° C. and used for qPCR analysis the next day.
# qPCR was done with the Qiagen RT PCR profiler gene analysis kit (catalog number 330451) using RT2 Sybr Green Rox qPCR Mastermix (24) (Part 330523) and Custom RT2 PCR array plates (Ref. 330171). For this 675 μL 2×RT2 SYBR green mastermix, 51 μL pre-AMP synthesis reaction, and 623 μL RNase free water were mixed, and then 25 μL of the mixture was added to 48 wells on the left or right half of the custom PCR plate. The PCR instrument was Applied Biosystems 7900HT fast real time PCR. […]
# [1] = PBMC + Candida extract, group A day 57 vs day 1 (pre-dose), one topical 2% SADBE dose
# [2] = PBMC + HSV-1-infected cell extracts (CE), group A day 57 vs day 1 (pre-dose), one topical 2% SADBE dose
# [3] = PBMC + heat-killed HSV-1 virus, group A day 57 vs day 1 (pre-dose), one topical 2% SADBE dose
compound,measurement,setting,value
"CCCCOc1c(OCCCC)c(=O)c1=O [SADBE, 3,4-Dibutoxy-3-cyclobutene-1,2-dione]",ratio of absolute expression in A57 vs. A1: FOXP3,[1],2.01
same,ratio of absolute expression in A57 vs. A1: GATA3,[1],0.28
same,ratio of absolute expression in A57 vs. A1: ICAM1,[1],1.27
same,ratio of absolute expression in A57 vs. A1: IFNA1,[1],2.13
same,ratio of absolute expression in A57 vs. A1: IFNB1,[1],0.93
same,ratio of absolute expression in A57 vs. A1: IFNG,[1],8.54
same,ratio of absolute expression in A57 vs. A1: IL1B,[1],1.73
same,ratio of absolute expression in A57 vs. A1: IL1R1,[1],0.9
same,ratio of absolute expression in A57 vs. A1: IL1RN,[1],1.91
same,ratio of absolute expression in A57 vs. A1: IL2,[1],6.31
same,ratio of absolute expression in A57 vs. A1: IL4,[1],1.52
same,ratio of absolute expression in A57 vs. A1: IL5,[1],1.1
same,ratio of absolute expression in A57 vs. A1: IL8,[1],1.89
same,ratio of absolute expression in A57 vs. A1: IL10,[1],1.12
same,ratio of absolute expression in A57 vs. A1: IL12A,[1],1.64
same,ratio of absolute expression in A57 vs. A1: IL12B,[1],3.61
same,ratio of absolute expression in A57 vs. A1: IL13,[1],4.28
same,ratio of absolute expression in A57 vs. A1: IL15,[1],2.18
same,ratio of absolute expression in A57 vs. A1: IL16,[1],0.81
same,ratio of absolute expression in A57 vs. A1: JAK2,[1],1.68
same,ratio of absolute expression in A57 vs. A1: LTA,[1],1.94
same,ratio of absolute expression in A57 vs. A1: LYZ,[1],0.93
same,ratio of absolute expression in A57 vs. A1: MX1,[1],1.34
same,ratio of absolute expression in A57 vs. A1: NOD1,[1],1.18
same,ratio of absolute expression in A57 vs. A1: SPP1,[1],7.34
same,ratio of absolute expression in A57 vs. A1: STAT1,[1],3.36
same,ratio of absolute expression in A57 vs. A1: STAT4,[1],1.76
same,ratio of absolute expression in A57 vs. A1: TNF,[1],1.22
same,ratio of absolute expression in A57 vs. A1: TNFSF10,[1],1.52
same,ratio of absolute expression in A57 vs. A1: TNFSF13B,[1],1.62
same,ratio of absolute expression in A57 vs. A1: CCL2,[2],1.21
same,ratio of absolute expression in A57 vs. A1: CCL3,[2],4.6
same,ratio of absolute expression in A57 vs. A1: CCL7,[2],0.75
same,ratio of absolute expression in A57 vs. A1: CCR5,[2],0.93
same,ratio of absolute expression in A57 vs. A1: CD80,[2],0.93
same,ratio of absolute expression in A57 vs. A1: CXCL2,[2],2.79
same,ratio of absolute expression in A57 vs. A1: CXCL5,[2],6.03
same,ratio of absolute expression in A57 vs. A1: CXCL9,[2],0.91
same,ratio of absolute expression in A57 vs. A1: CXCL10,[2],0.49
same,ratio of absolute expression in A57 vs. A1: CXCL11,[2],0.31
same,ratio of absolute expression in A57 vs. A1: DDX58,[2],0.94
same,ratio of absolute expression in A57 vs. A1: FOXP3,[2],1.11
same,ratio of absolute expression in A57 vs. A1: GATA3,[2],2.6
same,ratio of absolute expression in A57 vs. A1: ICAM1,[2],0.77
same,ratio of absolute expression in A57 vs. A1: IFNA1,[2],1.29
same,ratio of absolute expression in A57 vs. A1: IFNB1,[2],0.65
same,ratio of absolute expression in A57 vs. A1: IFNG,[2],5.72
same,ratio of absolute expression in A57 vs. A1: IL1B,[2],21.45
same,ratio of absolute expression in A57 vs. A1: IL1R1,[2],1.11
same,ratio of absolute expression in A57 vs. A1: IL1RN,[2],0.79
same,ratio of absolute expression in A57 vs. A1: IL2,[2],2.48
same,ratio of absolute expression in A57 vs. A1: IL4,[2],0.89
same,ratio of absolute expression in A57 vs. A1: IL5,[2],0.5
same,ratio of absolute expression in A57 vs. A1: IL8,[2],3.86
same,ratio of absolute expression in A57 vs. A1: IL10,[2],3.29
same,ratio of absolute expression in A57 vs. A1: IL12A,[2],0.89
same,ratio of absolute expression in A57 vs. A1: IL12B,[2],0.23
same,ratio of absolute expression in A57 vs. A1: IL13,[2],2.28
same,ratio of absolute expression in A57 vs. A1: IL15,[2],0.87
same,ratio of absolute expression in A57 vs. A1: IL16,[2],1.02
same,ratio of absolute expression in A57 vs. A1: JAK2,[2],0.82
same,ratio of absolute expression in A57 vs. A1: LTA,[2],0.99
same,ratio of absolute expression in A57 vs. A1: LYZ,[2],0.29
same,ratio of absolute expression in A57 vs. A1: MX1,[2],0.66
same,ratio of absolute expression in A57 vs. A1: NOD1,[2],0.89
same,ratio of absolute expression in A57 vs. A1: SPP1,[2],5.38
same,ratio of absolute expression in A57 vs. A1: STAT1,[2],0.91
same,ratio of absolute expression in A57 vs. A1: STAT4,[2],1.01
same,ratio of absolute expression in A57 vs. A1: TNF,[2],1.2
same,ratio of absolute expression in A57 vs. A1: TNFSF10,[2],0.88
same,ratio of absolute expression in A57 vs. A1: TNFSF1313,[2],1.07
same,ratio of absolute expression in A57 vs. A1: CCL2,[3],1.71
same,ratio of absolute expression in A57 vs. A1: CCL3,[3],3.73
same,ratio of absolute expression in A57 vs. A1: CCL7,[3],1.81
same,ratio of absolute expression in A57 vs. A1: CCR5,[3],1.35
same,ratio of absolute expression in A57 vs. A1: CD80,[3],1.25
same,ratio of absolute expression in A57 vs. A1: CXCL2,[3],1.58
same,ratio of absolute expression in A57 vs. A1: CXCL5,[3],2.52
same,ratio of absolute expression in A57 vs. A1: CXCL9,[3],2.5
same,ratio of absolute expression in A57 vs. A1: CXCL10,[3],1
same,ratio of absolute expression in A57 vs. A1: CXCL11,[3],0.4
same,ratio of absolute expression in A57 vs. A1: DDX58,[3],0.95
same,ratio of absolute expression in A57 vs. A1: FOXP3,[3],2.46
same,ratio of absolute expression in A57 vs. A1: GATA3,[3],0.32
same,ratio of absolute expression in A57 vs. A1: ICAM1,[3],1.07
same,ratio of absolute expression in A57 vs. A1: IFNA1,[3],1.34
same,ratio of absolute expression in A57 vs. A1: IFNB1,[3],0.87
same,ratio of absolute expression in A57 vs. A1: IFNG,[3],11.01
same,ratio of absolute expression in A57 vs. A1: IL1B,[3],5.09
same,ratio of absolute expression in A57 vs. A1: IL1R1,[3],0.97
same,ratio of absolute expression in A57 vs. A1: IL1RN,[3],1.48
same,ratio of absolute expression in A57 vs. A1: IL2,[3],2.11
same,ratio of absolute expression in A57 vs. A1: IL4,[3],1.32
same,ratio of absolute expression in A57 vs. A1: IL5,[3],0.56
same,ratio of absolute expression in A57 vs. A1: IL8,[3],3.3
same,ratio of absolute expression in A57 vs. A1: IL10,[3],2.29
same,ratio of absolute expression in A57 vs. A1: IL12A,[3],1.48
same,ratio of absolute expression in A57 vs. A1: IL12B,[3],2.08
same,ratio of absolute expression in A57 vs. A1: IL13,[3],3.02
same,ratio of absolute expression in A57 vs. A1: IL15,[3],1.54
same,ratio of absolute expression in A57 vs. A1: IL16,[3],0.82
same,ratio of absolute expression in A57 vs. A1: JAK2,[3],1.26
same,ratio of absolute expression in A57 vs. A1: LTA,[3],1.84
same,ratio of absolute expression in A57 vs. A1: LYZ,[3],0.53
same,ratio of absolute expression in A57 vs. A1: MX1,[3],0.66
same,ratio of absolute expression in A57 vs. A1: NOD1,[3],1.14
same,ratio of absolute expression in A57 vs. A1: SPP1,[3],15.29
same,ratio of absolute expression in A57 vs. A1: STAT1,[3],1.41
same,ratio of absolute expression in A57 vs. A1: STAT4,[3],1.69
same,ratio of absolute expression in A57 vs. A1: TNF,[3],1.19
same,ratio of absolute expression in A57 vs. A1: TNFSF10,[3],1.01
same,ratio of absolute expression in A57 vs. A1: TNFSF13B,[3],1.23
same,Ratio of absolute IFNG gene expression in group A vs. Groups B + C pooled,"Virus, group A day 57 after SADBE",3.359*
same,IFNG expression in group A on day 57 than day 1,"all three stimuli, PBMC",at least 8 fold
